# Where two headings read alike, the source gives them in different places.
# What was measured:
# primary myeloma explants = assay: Primary myeloma explant viability; format: cell-based; details: for sensitivity of primary myeloma cells: 3 days in culture
# Method: (§1) Figure 6 Susceptibilities of multiple myeloma cell lines and primary explants to SBI compounds A. Cell lines. The indicated human myeloma cell lines were treated with the indicated compounds for 3 days at which point the total viable cell count was determined using the Cell Titer Glo assay method. Shown are the IC50 values that were calculated from standard 10-point dose-response curves (Supplementary Figure 3). B. Primary myeloma explants. Myeloma cells were purified from bone marrow aspirates and maintained in culture for 3 days in the presence of varying concentrations of the indicated compounds [86] IC50 values were calculated from dose-response curves (Supplementary Figure 4).
# (§2) Cell lines were propagated in RPMI medium or Dulbecco's modified Eagle's minimal essential medium (D-MEM), containing 10% fetal bovine serum, 100 units/mL penicillin G and 100 μg/mL streptomycin. Proliferation and viability assays, cells were performed in 96 well plates in the presence of serial dilutions of compounds. Relative cell numbers and viability were determined 2-4 days later using MTT or CellTiter Glo (Promega, Inc. Madison, WI) assays as previously described.
# Primary myeloma samples were obtained from the Norwegian Myeloma Biobank after obtaining approval from the Regional Ethics Committee.
# human myeloma cell lines = assay: Myeloma cell line viability, Cell Titer Glo; format: cell-based; details: for differential susceptibilities among myeloma cell lines: discounting U266
# Method: as §1, §2
# [1] = system: N-Myc protein in SK-N-BE(2) cells; assay: N-Myc protein immunoblot in neuroblastoma cells; format: cell-based, human; details: within 24 hr
# Method: As positive and negative controls, respectively, parallel cultures were exposed to 60 μM 10058-F4 (+) or to DMSO vehicle only. B. SK-N-BE(2) cells treated as described in A were fixed and stained with Oil Red O to delineate lipid droplets. C. SK-N-BE(2) cells were exposed to the indicated amounts of Myc inhibitors for 5 days either in the concurrent absence or presence of nerve growth factor (NGF: 50 ng/ml). Typical fields of unfixed cells were then photographed. Note the presence of longer and more numerous neurite outgrowths in cells exposed to Myc inhibitors (arrows).
# Immunoblotting was performed as previously described. Antibodies included a mouse mAb against human Myc (1:500 dilution: Clone 9E10, Santa Cruz Biotechnology, Inc. Santa Cruz, CA), a mouse mAb against β−actin (1:10,000 dilution: cat. no.3700S Cell Signaling Technology, Inc. Beverly, MA), a mouse mAb against AMPK (1:1000 dilution: catalog no. 2532, Cell Signaling Technology) and a rabbit polyclonal antibody against AMPK phospho-Thr172 (1:1000 dilution, catalog no.2535, Cell Signaling Technologies).
# [2] = system: Daudi Burkitt lymphoma cell line; assay: Proliferation inhibition of Daudi cells; format: cell-based; details: Homo sapiens
# Method: as §2
# Myc-Max(S) heterodimers = Myc-Max(S) heterodimers (Homo sapiens, UniProt P01106+P61244); assay: EMSA, DNA binding by Myc-Max(S) heterodimers; format: biochemical; details: for fold more potent than celastrol: EMSA Myc-Max(S)
# Description: B. Formation of a typical Michael adduct with cysteine as an example (depicted in blue) is shown. […] C. […] Recombinant Myc bHLH-ZIP domain (residues 353-437), and full-length Max(S) and Max(L) were used for EMSAs along with a HEX-tagged, double-stranded oligonucleotide containing a Myc binding E-box element (CACGTG). Max(S) is the 151 residue isoform that homodimerizes efficiently but only binds DNA as a heterodimer in association with Myc. The 160 residue isoform, termed Max(L), that does bind DNA as a homodimer and that closely mimics the Myc-Max(S) association was used as a control. D. Graphical representation of EMSA results from triplicate assays performed as described in C.
# (§3) The 83 residue His6-tagged Myc bHLH-ZIP domain (amino acids […]), and full-length His6-tagged Max(S) and His6-tagged Max(L) were expressed and purified as previously described. 20 nmol each of Myc and Max(S) or 40 ng of Max(L) were used for EMSA assays that included 30 nmol of a (HEX)-tagged double-stranded E-box-containing oligonucleotide (IDT, Coralville, IA, USA). Importantly, the Myc protein excluded the two C-terminal amino acids (Cys438 and Ala439) from the final sequence, thus eliminating a potential reaction site for quinone methide-containing triterpenoids.
# [3] = system: HL60 promyelocytic leukemia cell line; assay: Proliferation inhibition of HL60 cells; format: cell-based; details: Homo sapiens, HL-60
# Method: as §2
# Max(L) homodimers = biological target: T1, Max(L) homodimers (Homo sapiens, UniProt P61244); assay: EMSA, DNA binding by Max(L) homodimers; format: biochemical; details: recombinant Max(L)
# T1 construct: full-length His6-tagged Max(S) and His6-tagged Max(L) were expressed and purified as previously described; His6; made in house
# Description: B. Formation of a typical Michael adduct with cysteine as an example (depicted in blue) is shown. Note that nucleophilic attack by free sulfhydryl-containing molecules occurs at position 6 of the B ring. C. […] Recombinant Myc bHLH-ZIP domain (residues 353-437), and full-length Max(S) and Max(L) were used for EMSAs along with a HEX-tagged, double-stranded oligonucleotide containing a Myc binding E-box element (CACGTG). Max(S) is the 151 residue isoform that homodimerizes efficiently but only binds DNA as a heterodimer in association with Myc. The 160 residue isoform, termed Max(L), that does bind DNA as a homodimer and that closely mimics the Myc-Max(S) association was used as a control. D. Graphical representation of EMSA results from triplicate assays performed as described in C.
# as §3
# [4] = system: NCI-60 cell line collection; assay: NCI-60 cell line screen; format: cell-based
# [5] = 3 days, Cell Titer Glo, read-out: mean IC50 over myeloma cell lines
# [6] = EMSA, recombinant Myc bHLH-ZIP and Max(S), read-out: IC50, DNA binding by Myc-Max(S) heterodimers
# Sequence of Myc-Max(S) heterodimers (P01106 368-452 limits assumed): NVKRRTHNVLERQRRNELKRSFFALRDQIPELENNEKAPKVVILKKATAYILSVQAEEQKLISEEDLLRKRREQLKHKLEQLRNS
# Sequence of Myc-Max(S) heterodimers (P61244 1-151 isoform P61244-2): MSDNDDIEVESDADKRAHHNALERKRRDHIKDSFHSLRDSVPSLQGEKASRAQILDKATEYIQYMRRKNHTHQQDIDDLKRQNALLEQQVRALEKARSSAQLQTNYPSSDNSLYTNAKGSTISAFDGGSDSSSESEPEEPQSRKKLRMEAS
# T1 sequence (P61244 whole entry): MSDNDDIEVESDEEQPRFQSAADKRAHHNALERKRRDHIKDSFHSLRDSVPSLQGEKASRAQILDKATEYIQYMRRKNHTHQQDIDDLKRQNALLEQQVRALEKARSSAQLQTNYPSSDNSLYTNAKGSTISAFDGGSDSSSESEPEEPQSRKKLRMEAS
structure (smiles),measurement,setting,value
"CCc1ccc(C=C2SC(=S)NC2=O)cc1 [10058-F4, [Z,E]-5-[4-ethylbenzylidine]-2-thioxothiazolidin-4-one]",sensitivity of primary myeloma cells,primary myeloma explants,the majority were sensitive
same,IC50,human myeloma cell lines; [5],21.8 µM
same,differential susceptibilities among myeloma cell lines,human myeloma cell lines,3-4 fold
same,N-Myc protein level,[1],declined
"CC1=C(O)C(=O)C=C2C1=CC=C1[C@@]2(C)CC[C@@]2(C)[C@@H]3C[C@](C)(C(=O)O)CC[C@]3(C)CC[C@]12C [Celastrol, celastrol, reference compound]",IC50,[2],0.09 ± 0.02 µM
same,IC50,Myc-Max(S) heterodimers,67 ± 2 µM
same,IC50,[3],0.46 ± 0.06 µM
same,N-Myc protein level,[1],declined
same,IC50,Max(L) homodimers,> 140 µM
Cc1sc2c(c1C)C(c1ccc(Cl)cc1)=N[C@@H](CC(=O)OC(C)(C)C)c1nnc(C)n1-2 [JQ1],sensitivity of primary myeloma cells,primary myeloma explants,resistant
same,effect against primary myelomas,primary myeloma explants; even at concentrations exceeding 10-20 μM,virtually without effect
same,IC50,human myeloma cell lines; [5],0.25 µM
same,IC50,"human myeloma cell lines; 3 days, U266 excluded, read-out: mean IC50 over myeloma cell lines disregarding U266",0.25 µM
same,fold lower mean IC50 than SBI-0061739,human myeloma cell lines; U266 excluded,< 2 fold
same,differential susceptibilities among myeloma cell lines,human myeloma cell lines,20 fold
same,factor by which JQ1 is more effective than 10058-F4,human myeloma cell lines; mean IC50s,~90
C=C(C)C1CCC2(C(=O)O)CCC3(C)C(CCC4C5(C)Cc6nccnc6C(C)(C)C5CCC43C)C12 (stereo not shown) [SBI-0061739],IC50,[2],3.19 ± 2.28 µM
same,IC50,[3],0.82 ± 0.23 µM
same,IC50,"human myeloma cell lines; Homo sapiens, U-266, 72 h, 3 days, U266 excluded, read-out: mean IC50 over myeloma cell lines disregarding U266",0.42 µM
same,IC50,"human myeloma cell lines; Homo sapiens, 8 of 9 cell lines, read-out: IC50 in 8 of 9 myeloma cell lines",< 1 µM
same,IC50,"[4]; 7 of 8 cell lines, read-out: IC50 in renal cancer lines",> 2 µM
same,IC50,"[4]; 17 cell lines (28%), read-out: IC50 in highly sensitive NCI-60 cell lines",< 2 µM
same,IC50,"[4]; all 6 lines, read-out: IC50 in ovarian cancer lines",> 2 µM
C=C(C)C1CCC2(C(=O)O)CCC3(C)C(CCC4C5(C)Cc6nc7ccccc7nc6C(C)(C)C5CCC43C)C12 (stereo not shown) [SBI-0069272],IC50,[2],14.3 ± 3.2 µM
same,fold more potent than celastrol,Myc-Max(S) heterodimers,4-6 fold
same,IC50,Myc-Max(S) heterodimers; [6],10 to 15 µM
same,IC50,[3],10.8 ± 2.18 µM
CC1(C)CCC2(C(=O)O)CCC3(C)C(=CCC4C5(C)CCC(=O)C(C)(C)C5CCC43C)C2C1 (stereo not shown) [SBI-0640599],IC50,[2],14.2 ± 3.7 µM
same,fold more potent than celastrol,Myc-Max(S) heterodimers,4-6 fold
same,IC50,Myc-Max(S) heterodimers; [6],10 to 15 µM
same,IC50,[3],12 ± 1.28 µM
C=C(C)C1CCC2(C(=O)O)CCC3(C)C(CCC4C5(C)CCC(=O)C(C)(C)C5CCC43C)C12 (stereo not shown) [SBI-0640601],IC50,[2],6.36 ± 1.25 µM
same,IC50,Myc-Max(S) heterodimers; [6],10 to 15 µM
same,IC50,[3],13.2 ± 1.74 µM

# From PMC4741700 (Oncotarget, 2015)
